{"source": "PubChem BioAssay AID624395", "about": "(The Scripps Research Institute Molecular Screening Center, 2012)", "note": "Activity calls are given as the source filed them. No rule for the calls is given here.", "data": [{"system": "cell-based VP16 transactivation luciferase luminescence", "assay": "compounds lowering VP16-driven reporter luminescence – cell-based, counter-screen for NR2E3 agonist project, dose response (AID 624395)", "values": [{"smiles": "NC(=O)c1nn(-c2ccccc2)nc1NC(=O)CSc1nnnn1-c1ccc(Cl)cc1", "IC50": "> 39.8 µM (inactive)"}, {"smiles": "CCCOc1ccc(CSc2nc3ccccc3[nH]2)cc1", "IC50": "13.3 µM (inactive)"}, {"smiles": "O=c1c(Cl)c(N2CCN(c3ccc(F)cc3)CC2)cnn1C12CC3CC(CC(C3)C1)C2", "IC50": "38.2 µM (inactive)"}, {"smiles": "Cc1ccsc1C(=O)OCC(=O)c1cc(C)n(CC2CCCO2)c1C", "note": "(stereo not given)", "IC50": "0.0525 µM"}, {"smiles": "CC(C)(C)C(=O)Nc1ccc(Sc2ccc([N+](=O)[O-])cc2)cc1", "IC50": "4.6 µM"}, {"smiles": "Cc1cc(NC(=O)CSc2nc3c(sc4ccccc43)c(=O)n2CCCN2CCOCC2)n[nH]1", "IC50": "> 39.8 µM (inactive)"}, {"smiles": "COc1ccc(C(=O)c2c(C(F)(F)F)oc3c2C(=O)c2ccccc2C3=O)cc1OC", "IC50": "1.68 µM"}, {"smiles": "CC(C)c1ccc(-c2csc(NC(=O)c3cccs3)c2C(=O)O)cc1", "IC50": "12.1 µM (inactive)"}, {"smiles": "CCc1cc(OCCCSc2nc(C)cc(=O)[nH]2)ccc1Cl", "IC50": "7.05 µM"}, {"smiles": "O=C(/C=C/c1ccc([N+](=O)[O-])o1)NNC(=O)c1ccc(F)cc1", "IC50": "24.2 µM (inactive)"}, {"smiles": "COc1cccc2c1C(=O)c1c(O)c3c(c(O)c1C2=O)CC(O)(C(C)=O)CC3OC1CC(N(C)C)C(O)C(C)O1", "note": "(stereo not given)", "IC50": "3.21 µM"}, {"smiles": "O=C(O)CC1(CC(=O)Nc2cc(C(F)(F)F)cc(C(F)(F)F)c2)CCCCC1", "IC50": "14.1 µM (inactive)"}, {"smiles": "CCc1cccc2sc(N3CCN(C(=O)c4ccc([N+](=O)[O-])o4)CC3)nc12", "IC50": "> 13.3 µM (inactive)"}, {"smiles": "CN1C2CCC1/C(=C/c1ccccn1)C(=O)/C2=C\\c1ccccn1", "IC50": "4.5 µM"}, {"smiles": "C[C@H]1CCC/C=C/[C@@H]2C[C@H](O)C[C@H]2[C@H](O)[C@H](S(=O)c2ccc(O)cc2)CC(=O)O1", "note": "(stereo not given in full)", "IC50": "3.52 µM"}, {"smiles": "Cc1cccc(C(=O)N[C@H](C(=O)Nc2ncc(C)s2)C(C)C)c1", "IC50": "12.1 µM (inactive)"}, {"smiles": "CCC1(C)Cc2c(sc3[nH]c(=S)n(Cc4ccccc4)c(=O)c23)CO1", "note": "(stereo not given)", "IC50": "12.1 µM (inactive)"}, {"smiles": "O=C1C(=O)c2cccnc2-c2ncccc21", "IC50": "13.1 µM (inactive)"}, {"smiles": "O=C(CN1C(=O)C(c2ccc(F)cc2)=NC12CCCC2)Nc1ccc(F)cc1", "IC50": "4.48 µM"}, {"smiles": "Brc1ccc(N/N=C(/N=Nc2nn[nH]n2)c2ccccc2)cc1", "IC50": "12.8 µM (inactive)"}, {"smiles": "COc1cc2c(OC(C)=O)c3c(c(-c4ccc5c(c4)OCO5)c2cc1OC)C(=O)OC3", "IC50": "3.48 µM"}, {"smiles": "COc1ccccc1-n1c(=O)oc2ccc(Cl)cc2c1=O", "IC50": "7.67 µM"}, {"smiles": "O=C(O)c1ccc(S(=O)(=O)/N=C2\\C=C(Nc3ccccc3F)C(=O)c3ccccc32)cc1", "IC50": "4.45 µM"}, {"smiles": "CCc1ccccc1Nc1nn2c(=O)c3ccc(C(=O)NCc4ccccn4)cc3nc2s1", "IC50": "> 13.3 µM (inactive)"}, {"smiles": "CN(C)c1ncnc2c1ccn2C1OC(CO)C(O)C1O", "note": "(stereo not given)", "IC50": "0.53 µM"}, {"smiles": "Cc1nc2ncnn2c(N2CCN(c3cccc(C(F)(F)F)c3)CC2)c1C", "IC50": "6.46 µM"}, {"smiles": "CCOC(=O)N1CCN(C(=O)c2ccc(S(=O)(=O)Nc3ccc(C)cc3)cc2)CC1", "IC50": "8.62 µM"}, {"smiles": "Cc1ccc(-c2nc(NC(=O)CSc3nnnn3-c3ccccc3)ns2)cc1", "IC50": "12.1 µM (inactive)"}, {"smiles": "CC(C(=O)N1CCN(c2ccc(Cl)cc2)CC1)c1ncc(C(F)(F)F)cc1Cl", "note": "(stereo not given)", "IC50": "7.28 µM"}, {"smiles": "O=c1c(Br)ccc(Br)cc1Br", "IC50": "4.8 µM"}, {"smiles": "COc1cnc(-c2ccccn2)nc1Sc1ccccc1Cl", "IC50": "4.92 µM"}, {"smiles": "C=C1C(=O)O[C@@H]2C[C@@H](C)[C@@H]3C=CC(=O)[C@@]3(C)[C@@H](O)[C@H]12", "IC50": "4.37 µM"}, {"smiles": "CCCCCCCCCCCCN1[C@@H](CC(=O)O)c2cc(C(F)(F)F)ccc2S1(=O)=O", "IC50": "8.1 µM"}, {"smiles": "O=C(Nc1cccc(NC(=O)c2c(F)cccc2F)n1)c1c(F)cccc1F", "IC50": "> 39.8 µM (inactive)"}, {"smiles": "Cc1sc2ncnc(NCC(O)c3ccccc3)c2c1C", "note": "(stereo not given)", "IC50": "4.74 µM"}, {"smiles": "Cc1cc(C)cc(NC(=O)CCc2nc3sc4c(c3c(=O)[nH]2)CCCC4)c1", "IC50": "> 39.8 µM (inactive)"}, {"smiles": "Cc1ccc(CN2CC(C(=O)Nc3ncc(C)s3)CC2=O)cc1", "note": "(stereo not given)", "IC50": "> 39.8 µM (inactive)"}, {"smiles": "C=CC[n+]1c(-c2ccc(Cl)cc2Cl)csc1Nc1ccc(NC(C)=O)cc1", "IC50": "2.75 µM"}, {"smiles": "CCC(C)Nc1nc(-c2ccccn2)nc2ccccc12", "note": "(stereo not given)", "IC50": "3.93 µM"}, {"smiles": "Cc1cnc(NC(=O)C2CC(=O)N(c3cccc(Cl)c3)C2)s1", "note": "(stereo not given)", "IC50": "1.05 µM"}]}]}
